Data on two compounds can be found in patent US20060235225A1, “Crystals of 5-[2-amino-4-(2-furyl) pyrimidin-5-yl]-1-methylpyridin-2(1H)-one and processes for preparing the same” (Eisai Co., Ltd., priority 2005, published 2006).

A short description of data set [1]: Variable-temperature powder X-ray diffraction and DSC (change of crystal form on heating). The data set is classed as physicochemical. The method, then:
The measuring conditions were the same as for the powder X-ray diffraction pattern measurement described above, except for the measuring temperature.
DSC analysis was conducted under the following conditions, using approximately 3 mg each of the crystals obtained in Example 1 and Comparative Example 2 (the crystal form A and the crystal form B). The DSC patterns of the respective crystals are shown in FIG. 6 and FIG. 7 (magnification of 40-230° C.), and the endothermic peaks and exothermic peaks are shown in Table 2. • Measuring apparatus: DSC822^e by Mettler Toledo • Sample pan material: aluminum • Nitrogen gas flow (40 mL/min) • Start temperature: 25° C. • End temperature: 260° C.
Temperature elevating rate: 5° C./min

Data set [2] in a line: Stability against light (impurity content by HPLC after storage). The data set is classed as physicochemical. The method, then:
The respective crystals obtained in Example 1 and Comparative Example 2 (the crystal form A and the crystal form B) were stored for 1, 3 and 6 months under conditions of 25° C./1000 Lx (apparatus for light stability test; Nagano Science Co. Ltd) and 25° C./dark (control), and impurity contents were measured by HPLC method to investigate stability against exposure to light for the respective crystals. The conditions for HPLC method are shown below.
(Calculation Method of Impurity Content)
Individual impurity content (%)=(Peak area of individual impurity)/(total of all peak areas)×100
Peaks with impurity contents of 0.05% or greater were recorded as impurity peaks, and their total was recorded as the impurity content of the crystals. Impurity content (%)=Total of individual impurity contents (%)

Regarding `Cn1cc(-c2cnc(N)nc2-c2ccco2)ccc1=O` [Crystal form A, 5-[2-amino-4-(2-furyl)pyrimidin-5-yl]-1-methylpyridin-2(1H)-one], the “Change in crystal form by heating” value in data set [1] (sample temperature 30° C. to 260° C.) was “undergoes no change in crystal form by heating”. Moreover, the Impurity content in data set [2] (25° C./1000Lx, storage period 1 month, listed as A) stood at 0.10%; in data set [2] (25° C./1000Lx, storage period 3 months, listed as A), 0.07%; in data set [2] (25° C./1000Lx, storage period 6 months, listed as A), 0.08%; in data set [2] (25° C./dark (control), storage period 1 month, listed as A), 0.14%; in data set [2] (25° C./dark (control), storage period 3 months, listed as A), 0.12%; in data set [2] (25° C./dark (control), storage period 6 months, listed as A), 0.12%. In data set [2] (Initial, before storage, HPLC, listed as A), this compound yielded an Impurity content of 0.06%. Also, the “Stability against exposure to light (comparison of crystal forms)” value in data set [2] (25° C./1000 Lx, up to 6 months) is recorded as “more stable against exposure to light than the crystal form B”.

For `Cn1cc(-c2cnc(N)nc2-c2ccco2)ccc1=O` [Crystal form B, 5-[2-amino-4-(2-furyl)pyrimidin-5-yl]-1-methylpyridin-2(1H)-one], the “Temperature of transformation to another crystal form (B′)” value in data set [1] (heating 30° C. to 260° C.) is “about 90 °C”. For the same compound, in data set [1] (heating 30° C. to 260° C.), the “Temperature of transformation to the crystal form A” value is “about 170 °C”. Besides, the Impurity content in data set [2] (25° C./1000Lx, storage period 1 month, listed as B) is 0.48%; in data set [2] (25° C./1000Lx, storage period 3 months, listed as B), 0.52%; in data set [2] (25° C./1000Lx, storage period 6 months, listed as B), 0.81%; in data set [2] (25° C./dark (control), storage period 1 month, listed as B), 0.28%; in data set [2] (25° C./dark (control), storage period 3 months, listed as B) it was 0.25%; in data set [2] (25° C./dark (control), storage period 6 months, listed as B) it was 0.23%. In data set [2] (Initial, before storage, HPLC, listed as B), this compound registered an Impurity content of 0.34%.
